Results reported in patent publication US20100197590A1, “4-AMINO-7,8-DIHYDROPYRIDO[4,3-d]PYRIMIDIN-5(6H)-ONE DERIVATIVES” (Pfizer Inc, priority 2009, published 2010).

Target: T1, Human full-length diacylglycerol:acylCoA acyltransferase 1 (DGAT-1) (Homo sapiens, UniProt O75907)
T1 construct: Human full-length diacylglycerol:acylCoA acyltransferase 1 (DGAT-1) was expressed in Sf9 insect cells; made in house; host or cells: Sf9 insect cells (baculovirus)
T1 sequence (O75907 1-488): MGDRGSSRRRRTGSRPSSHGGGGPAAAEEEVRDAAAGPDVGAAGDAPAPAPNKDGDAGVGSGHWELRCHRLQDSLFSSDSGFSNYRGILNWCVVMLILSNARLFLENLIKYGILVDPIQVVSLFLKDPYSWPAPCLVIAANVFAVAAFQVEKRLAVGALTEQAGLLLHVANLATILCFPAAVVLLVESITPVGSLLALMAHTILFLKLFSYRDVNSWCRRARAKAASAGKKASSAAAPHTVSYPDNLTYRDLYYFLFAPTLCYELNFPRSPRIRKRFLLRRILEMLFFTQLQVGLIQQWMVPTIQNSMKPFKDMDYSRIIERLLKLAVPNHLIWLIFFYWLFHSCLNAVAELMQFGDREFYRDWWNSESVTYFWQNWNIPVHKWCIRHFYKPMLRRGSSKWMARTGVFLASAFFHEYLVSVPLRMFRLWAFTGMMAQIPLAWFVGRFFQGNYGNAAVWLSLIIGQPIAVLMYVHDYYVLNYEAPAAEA
Assay: In vitro DGAT-1 inhibition, Assay 1
Format: biochemical
Details: Sf9 microsomes at 25 μg/mL, [14C]decanoylCoA, eight inhibitor concentrations; average where n > 1
Procedure: Human full-length diacylglycerol:acylCoA acyltransferase 1 (DGAT-1) was expressed in Sf9 insect cells which are then lysed and a crude membrane fraction (105,000×g pellet) was prepared. The DGAT-1 gene is a human DGAT-1 gene described in J Biol Chem 273:26765 (1998) and U.S. Pat. No. 6,100,077.
In vitro inhibition of DGAT-1 was measured using a modification, further described below, of the assay methodology described in U.S. Pat. No. 6,994,956 B2. The cells were cultured as follows. Sf9 cells (20 L) were infected with 4 mL of DGAT-1 Baculovirus Infected Insect Cells (BIIC) for 72 hours in a Wave Bioreactor System 20/50P (Wave Biotec/GE Healthcare).
Crude DGAT-1 microsomes were prepared as follows. Cell pellets were washed once with ice-cold Dulbecco's phosphate-buffered saline. Cells were collected in tabletop centrifuge (Beckman GS-6KR), 15 minutes, 2000×g, 4° C. Twenty (20) mL of ice-cold Microsome Buffer (MB) was added per 5 g of cell pellet. The suspension was passed through a microfluidizer 3 times (18K psi). […] The microsome concentration was determined using Bio-Rad Protein DC Protein Assay. […]
The Microsome Buffer, used for microsome preparation, was prepared by conventional means and contained 125 mM sucrose, 3 mM imidazole, 0.2 μg/mL aprotinin, 0.2 μg/mL leupeptin and 5 mM dithiothreitol (Cleland's reagent) at pH-7.4 DGAT-1 activity was measured in 384-well format in a total assay volume of 20 μl that contained, Hepes buffer (50 mM, pH 7.5), MgCl2 (10 mM), bovine serum albumin (0.6 mg/ml), [^14C]decanoylCoA (25 μM, 58 Ci/mol) and microsomes (5.6 μg/ml) into which 1,2 dioleoyl-sn-glycerol (75 μM) in acetone has already been incorporated. […]
The reactions were allowed to proceed for 1.5 h at room temperature and then terminated by the addition of 20 μl of EDTA (40 mM). […] Plates contents were allowed to partition for 15 to 30 min before ^14C was measured in a scintillation spectrometer (Wallac Microbeta Trilux 1450-030, 12 detector in the top-count DPM mode). […]

| IC50 [nM] | Compound |
| --- | --- |
| 618 | Cc1nc(N)c2c(n1)CCN(c1ccc([C@H]3CC[C@H](CC(=O)O)CC3)cc1)C2=O [Example 14, {trans-4-[4-(4-amino-2-methyl-5-oxo-7,8-dihydropyrido[4,3-d]pyrimidin-6(5H)-yl)phenyl]cyclohexyl}acetic acid] |
| 231 | Cc1nc(N)c2c(n1)CCN(c1ccc(C3CCC(CC(=O)O)CC3)cc1)C2=O (stereo not drawn) [Example 13, 2-(4-(4-(4-amino-2-methyl-5-oxo-7,8-dihydropyrido[4,3-d]pyrimidin-6(5H)-yl)phenyl)cyclohexyl)acetic acid] |
| 717 | Cc1nc(N)c2c(n1)CCN(c1ccc([C@H]3CC[C@@H](CC(=O)O)CC3)cc1)C2=O [Example 15, {cis-4-[4-(4-amino-2-methyl-5-oxo-7,8-dihydropyrido[4,3-d]pyrimidin-6(5H)-yl)phenyl]cyclohexyl}acetic acid] |
